Structures can show the parent of a compound that is named as a salt.
Key:
[1] = test system: Enterobacter cloacae 1401-4; assay: M.I.C., serial agar dilution, nutrient agar (inoculum 10^6 cells/ml); format: cell-based; conditions: 14014, 37° C., 20 hours
Method: (§1) M.I.C. test was conducted by the usual serial agar dilution method, (inoculum:10^6 cells/ml.), using a nutrient agar which was incubated at 37° C. for 20 hours. M.I.C. value is expressed as the minimum concentration of the monoammonium salt of 3-(N-formyl-N-hydroxyamino)-propylphosphonic acid (mcg/ml.) which inhibits growth of microorganisms.

Sarcina lutea PCI 1001 [2] = assay: as above; format: cell-based; conditions: Micrococcus luteus, PCI1001, 37° C., 20 hours
Method: as §1

[3] = test system: Serratia marcescens 1421-4; assay: as above; format: cell-based; conditions: 14214, 37° C., 20 hours
Method: as §1

[4] = test system: Enterobacter aerogenes 1402-10; assay: as above; format: cell-based; conditions: Klebsiella aerogenes, 140210, 37° C., 20 hours
Method: as §1

Shigella sonnei I EW33 [5] = assay: as above; format: cell-based; conditions: IEW33, 37° C., 20 hours
Method: as §1

[6] = test system: Escherichia coli NIHJ JC-2; assay: as above; format: cell-based; conditions: NIHJJC2, 37° C., 20 hours
Method: as §1

Proteus morganii 1433-2 [7] = assay: as above; format: cell-based; conditions: Morganella morganii, 14332, 37° C., 20 hours
Method: as §1

[8] = test system: Escherichia coli 1341-18(R); assay: as above; format: cell-based; conditions: 20 h
Method: as §1

[9] = test system: Proteus inconstans 1436-21; assay: as above; format: cell-based; conditions: Providencia alcalifaciens, 143621, 37° C., 20 hours
Method: as §1

[10] = test system: Pseudomonas aeruginosa IAM 1095; assay: as above; format: cell-based; conditions: IAM1095, 37° C., 20 hours
Method: as §1

[11] = test system: Bacillus substilis ATCC6633; assay: as above; format: cell-based; conditions: ATCC6633, 20 h
Method: as §1

Salmonella typhi 0-901 [12] = assay: as above; format: cell-based; conditions: Salmonella enterica, 20 h
Method: as §1

[13] = test system: Staphylococcus aureus FDA209P JC-1; assay: as above; format: cell-based; conditions: 37° C., 20 hours
Method: as §1

[14] = test system: Salmonella paratyphi A-1015; assay: as above; format: cell-based; conditions: Salmonella enterica, 20 h
Method: as §1

Proteus rettgeri 1434-3 [15] = assay: as above; format: cell-based; conditions: Providencia rettgeri, 14343, 37° C., 20 hours
Method: as §1

[16] = test system: Proteus mirabilis 1432-75; assay: as above; format: cell-based; conditions: 143275, 37° C., 20 hours
Method: as §1

Shigella flexneri IaEW8 [17] = assay: as above; format: cell-based; conditions: 37° C., 20 hours
Method: as §1

[18] = test system: Salmonella typhimurium 1406; assay: as above; format: cell-based; conditions: Salmonella enterica, 37° C., 20 hours
Method: as §1

[19] = test system: Salmonella enteritidis 1891; assay: as above; format: cell-based; conditions: Salmonella enterica, 37° C., 20 hours
Method: as §1

[20] = test system: Citrobacter freundii 1381-3; assay: as above; format: cell-based; conditions: 13813, 37° C., 20 hours
Method: as §1

[21] = test system: Proteus vulgaris IAM 1025; assay: as above; format: cell-based; conditions: IAM1025, 37° C., 20 hours
Method: as §1

[22] = test system: Klebsiella pneumoniae NCTC 418; assay: as above; format: cell-based; conditions: NCTC418, 37° C., 20 hours
Method: as §1

[23] = test system: Pseudomonas aeruginosa 1101-76; assay: Protecting effect in experimental mice infections; format: in vivo, mice (ICR-strain); conditions: Pseudomonas aeruginosa 1101-76, 1.2 × 10^6 viable cells per mouse, survival 1 week
Method: Male mice of ICR-strain, aged 4 weeks and weighing 24±1 g., were used. Each experimental group consists of 8 animals.
A prescribed amount of pathogenic bacteria, suspended in 5% aqueous Mucin solution (0.5 ml.), was intraperitoneally injected into the test animals.
Subsequently, the above test compound in water (0.25 ml.) was administered to each of the test animals, subcutaneously three times at 0, 1, 3 hours or orally once at 1 hour after the infection of pathogenic bacteria, respectively.

[24] = test system: pathogenic microorganisms; conditions: in words; from work filed as U.S. application Ser. No. 819,551; cited from earlier work
Acute toxicity, mouse = assay: Acute toxicity, mouse; set-up: species or system Mouse (ICR-strain); conditions: in vivo, observed one week
Source text: Male and Female mice of ICR-strain, aged 6 weeks were used.
(§2) Litchfield-Wilcoxon method

Acute toxicity, rat = conditions: in vivo, male, observed one week
Source text: as §2

[25] = test system: Escherichia coli 1341-18(R^+); assay: M.I.C., serial agar dilution, nutrient agar (inoculum 10^5 cells/ml); format: cell-based; conditions: 37° C., 18 hours
Method: (§3) M.I.C. test was conducted by an usual serial agar dilution method, (inoculum: 10^5 cells/ml.), using a nutrient agar which was incubated at 37° C. for 18 hours. M.I.C. value is expressed as the minimum concentration of the monopotassium salt of 3-(N-formyl-N-hydroxyamino)-trans-1-propenylphosphonic acid (mcg/ml.) which inhibits growth of microorganisms.

[26] = test system: Enterobacter cloacae 1401-4; assay: as above; format: cell-based; conditions: 14014, 37° C., 18 hours
Method: as §3

Sarcina lutea PCI 1001 [27] = assay: as above; format: cell-based; conditions: Micrococcus luteus, PCI1001, 37° C., 18 hours
Method: as §3

[28] = test system: Serratia marcescens 1421-4; assay: as above; format: cell-based; conditions: 14214, 37° C., 18 hours
Method: as §3

[29] = test system: Enterobacter aerogenes 1402-10; assay: as above; format: cell-based; conditions: Klebsiella aerogenes, 140210, 37° C., 18 hours
Method: as §3

Shigella sonnei I EW33 [30] = assay: as above; format: cell-based; conditions: IEW33, 37° C., 18 hours
Method: as §3

Proteus morganii 1433-2 [31] = assay: as above; format: cell-based; conditions: Morganella morganii, 14332, 37° C., 18 hours
Method: as §3

[32] = test system: Staphylococcus aureus FDA209PJC-1; assay: as above; format: cell-based; conditions: FDA209PJC1, 37° C., 18 hours
Method: as §3

[33] = test system: Proteus inconstans 1436-21; assay: as above; format: cell-based; conditions: Providencia alcalifaciens, 143621, 37° C., 18 hours
Method: as §3

[34] = test system: Pseudomonas aeruginosa IAM 1095; assay: as above; format: cell-based; conditions: IAM1095, 37° C., 18 hours
Method: as §3

Salmonella typhi 0-901 [35] = assay: as above; format: cell-based; conditions: Salmonella enterica, 37° C., 18 hours
Method: as §3

[36] = test system: Salmonella paratyphi A-1015; assay: as above; format: cell-based; conditions: Salmonella enterica, 37° C., 18 hours
Method: as §3

Proteus rettgeri 1434-3 [37] = assay: as above; format: cell-based; conditions: Providencia rettgeri, 14343, 37° C., 18 hours
Method: as §3

[38] = test system: Proteus mirabilis 1432-75; assay: as above; format: cell-based; conditions: 143275, 37° C., 18 hours
Method: as §3

Shigella flexneri IaEW8 [39] = assay: as above; format: cell-based; conditions: 37° C., 18 hours
Method: as §3

[40] = test system: Salmonella typhimurium 1406; assay: as above; format: cell-based; conditions: Salmonella enterica, 37° C., 18 hours
Method: as §3

[41] = test system: Salmonella enteritidis 1891; assay: as above; format: cell-based; conditions: Salmonella enterica, 37° C., 18 hours
Method: as §3

[42] = test system: Citrobacter freundii 1381-3; assay: as above; format: cell-based; conditions: 13813, 37° C., 18 hours
Method: as §3

[43] = test system: Bacillus subtilis ATCC6633; assay: as above; format: cell-based; conditions: 37° C., 18 hours
Method: as §3

[44] = test system: Proteus vulgaris IAM 1025; assay: as above; format: cell-based; conditions: IAM1025, 37° C., 18 hours
Method: as §3

[45] = test system: Klebsiella pneumoniae NCTC 418; assay: as above; format: cell-based; conditions: NCTC418, 37° C., 18 hours
Method: as §3

O=CN(O)CCCP(=O)(O)O [monoammonium salt of 3-(N-formyl-N-hydroxyamino)propylphosphonic acid]
MIC [1]: 6.25 mg/L | MIC (Sarcina lutea PCI 1001 [2]): ≤ 0.1 mg/L | MIC [3]: 100 mg/L | MIC [4]: 6.25 mg/L | MIC (Shigella sonnei I EW33 [5]): 100 mg/L | MIC [6]: 200 mg/L | MIC (Proteus morganii 1433-2 [7]): > 800 mg/L | MIC [8]: 12.5 mg/L | MIC [9]: 3.13 mg/L | MIC [10]: 0.78 mg/L | MIC [11]: 6.25 mg/L | MIC (Salmonella typhi 0-901 [12]): 0.39 mg/L | MIC [13]: > 800 mg/L | MIC [14]: 12.5 mg/L | MIC (Proteus rettgeri 1434-3 [15]): 1.56 mg/L | MIC [16]: 6.25 mg/L | MIC (Shigella flexneri IaEW8 [17]): 12.5 mg/L | MIC [18]: 25 mg/L | MIC [19]: 0.39 mg/L | MIC [20]: 3.13 mg/L | MIC [21]: 3.13 mg/L | MIC [22]: 100 mg/L | ED50, oral administration ([23]; orally once at 1 hour): 0.280 mg/mouse | ED50, subcutaneous administration ([23]; s.c. three times at 0, 1, 3 hours): 0.228 mg/mouse

CC(=O)N(O)CCCP(=O)(O)O [FR-900098, 3-(N-acetyl-N-hydroxyamino)propylphosphonic acid]
antimicrobial activities [24]: antimicrobial activities against various pathogenic microorganisms

O=CN(O)CCCP(=O)(O)O [monosodium salt of 3-(N-formyl-N-hydroxyamino)propylphosphonic acid]
LD50 at 168 h (Acute toxicity, mouse; po, female, oral, read-out: LD50, oral administration): > 11000 mg/kg | LD50 at 168 h (Acute toxicity, mouse; po, male, oral, read-out: LD50, oral administration): 11000 mg/kg | LD50 at 168 h (Acute toxicity, mouse; sc, female, subcutaneous, read-out: LD50, subcutaneous administration): 8270 mg/kg | LD50 at 168 h (Acute toxicity, mouse; sc, male, subcutaneous, read-out: LD50, subcutaneous administration): 8050 mg/kg | LD50 at 168 h (Acute toxicity, rat; oral, read-out: LD50, oral administration): > 11000 mg/kg | LD50 at 168 h (Acute toxicity, rat; sc, subcutaneous, read-out: LD50, subcutaneous administration): 8000 mg/kg

O=CN(O)C/C=C/P(=O)(O)O [monopotassium salt of 3-(N-formyl-N-hydroxyamino)-trans-1-propenylphosphonic acid]
MIC [25]: 25 mg/L | MIC [26]: 12.5 mg/L | MIC (Sarcina lutea PCI 1001 [27]): 0.2 mg/L | MIC [28]: > 100 mg/L | MIC [29]: 50 mg/L | MIC (Shigella sonnei I EW33 [30]): 25 mg/L | MIC (Proteus morganii 1433-2 [31]): > 100 mg/L | MIC [32]: > 100 mg/L | MIC [33]: 25 mg/L | MIC [34]: 1.56 mg/L | MIC (Salmonella typhi 0-901 [35]): 0.78 mg/L | MIC [36]: 25 mg/L | MIC (Proteus rettgeri 1434-3 [37]): 6.25 mg/L | MIC [38]: 0.39 mg/L | MIC (Shigella flexneri IaEW8 [39]): 50 mg/L | MIC [40]: 12.5 mg/L | MIC [41]: 6.25 mg/L | MIC [42]: 12.5 mg/L | MIC [43]: 6.25 mg/L | MIC [44]: 1.56 mg/L | MIC [45]: 100 mg/L
